# From the supplement of paper PMC10307832
# How the values were obtained:
# Experiment in all cases: relative viability (nuclei count vs DMSO), 5 days (fraction); higher = more cells survive
# [1] = compound: C1=CC=C2C(=C1)C=CC(=C2SSC3=C(C=CC4=CC=CC=C43)O)O [IPA-3] + CC1(C)CCC(c2ccc(Cl)cc2)=C(CN2CCN(c3ccc(C(=O)NS(=O)(=O)c4ccc(N[C@H](CCN5CCOCC5)CSc5ccccc5)c(S(=O)(=O)C(F)(F)F)c4)cc3)CC2)C1 [Navitoclax] (partner 0.5 µM)
# Method in brief: (§1)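 One day after seeding in 1536-well plates, lung cancer cell lines were dosed by pin tool. Dosing was either single-drug or a fixed anchor-drug dose plus five library-drug doses (not always all listed) in √10 steps. After 5 days, nuclei were stained in one fix-and-stain step and counted on 4× images, and relative viability is the nuclei count of treated wells over that of vehicle wells, given as the median of duplicate plates.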
# [2] = compound: Cn1c(Nc2ccc(C(F)(F)F)cc2)nc2cc(Oc3ccnc(-c4ncc(C(F)(F)F)[nH]4)c3)ccc21 [RAF265] + CC1(C)CCC(c2ccc(Cl)cc2)=C(CN2CCN(c3ccc(C(=O)NS(=O)(=O)c4ccc(N[C@H](CCN5CCOCC5)CSc5ccccc5)c(S(=O)(=O)C(F)(F)F)c4)cc3)CC2)C1 [Navitoclax] (partner 0.5 µM)
# Method in brief: as §1
# [3] = compound: Cn1c(Nc2ccc(C(F)(F)F)cc2)nc2cc(Oc3ccnc(-c4ncc(C(F)(F)F)[nH]4)c3)ccc21 [RAF265] + Cc1cc(Nc2cc(N3CCN(C)CC3)nc(Sc3ccc(NC(=O)C4CC4)cc3)n2)n[nH]1 [Tozasertib] (partner 0.1 µM)
# Method in brief: as §1
# [4] = compound: Cn1c(Nc2ccc(C(F)(F)F)cc2)nc2cc(Oc3ccnc(-c4ncc(C(F)(F)F)[nH]4)c3)ccc21 [RAF265] + Cc1nc(NC(=O)N2CCC[C@H]2C(N)=O)sc1-c1ccnc(C(C)(C)C(F)(F)F)c1 [Alpelisib] (partner 2 µM)
# Method in brief: as §1
Cell Line,relative viability ([1]; first compound 0.2 µM),relative viability ([1]; first compound 0.6325 µM),relative viability ([1]; first compound 2 µM),relative viability ([1]; first compound 6.325 µM),relative viability ([1]; first compound 20 µM),relative viability ([2]; first compound 0.01 µM),relative viability ([2]; first compound 0.03162 µM),relative viability ([2]; first compound 0.1 µM),relative viability ([2]; first compound 0.3162 µM),relative viability ([2]; first compound 1 µM),relative viability ([3]; first compound 0.01 µM),relative viability ([3]; first compound 0.03162 µM),relative viability ([3]; first compound 0.1 µM),relative viability ([3]; first compound 0.3162 µM),relative viability ([3]; first compound 1 µM),relative viability ([4]; first compound 0.01 µM),relative viability ([4]; first compound 0.03162 µM),relative viability ([4]; first compound 0.1 µM),relative viability ([4]; first compound 0.3162 µM),relative viability ([4]; first compound 1 µM)
COR-L23,1.11,0.975,1.07,0.983,0.926,0.976,0.957,0.918,0.512,0.514,0.212,0.176,0.208,0.201,0.161,0.785,0.696,0.669,0.389,0.304
COR-L 105,0.866,1.07,0.925,0.644,0.782,0.853,0.878,0.668,0.685,0.339,0.435,0.423,0.341,0.451,0.317,1.09,0.948,1.16,0.603,0.461
EKVX,1.05,0.608,1.05,0.851,1.23,0.939,0.916,0.957,0.606,0.637,0.376,0.344,0.469,0.377,0.306,0.863,0.842,0.944,0.516,0.624
EMC-BAC-2,1.38,1.11,1.16,1.09,1.32,1.11,1.06,1.05,0.941,0.612,0.28,0.266,0.209,0.202,0.082,0.735,0.682,0.692,0.52,0.263
EPLC-272H,1.25,1.4,1.16,1.21,1.18,1.03,0.98,0.851,0.503,0.383,0.218,0.328,0.275,0.257,0.199,0.847,0.792,0.801,0.478,0.367
H3255,0.543,0.523,0.446,0.566,0.603,0.563,0.47,0.695,0.0727,0.23,0.553,0.54,0.605,–,0.476,0.706,0.836,0.691,–,0.455
HARA,1.18,1.09,1.12,1.01,1.2,1.15,1.05,1.1,1.21,0.824,0.12,0.0972,0.13,0.0934,0.0806,0.762,0.708,0.736,0.477,0.287
HCC-15,0.693,0.65,0.642,0.725,0.748,0.734,0.709,0.7,0.505,0.464,0.406,0.32,0.538,0.401,0.278,0.949,0.776,0.844,0.544,0.439
HCC-44,1.11,0.969,0.977,1,0.942,0.879,0.884,1.03,1.03,0.916,0.892,0.779,1.25,1.07,0.821,0.743,0.699,0.882,0.75,0.695
HCC-78,0.915,0.75,0.706,0.764,1.01,0.898,0.901,0.912,0.726,0.731,0.349,0.472,0.417,0.463,0.396,0.33,0.358,0.432,0.291,0.249
HCC-366,1.18,1.01,1.19,1.03,1.18,1.09,1.15,1.13,1.09,0.776,0.137,0.165,0.138,0.0437,0.0369,0.404,0.432,0.539,0.579,0.124
HCC-827,1.01,1.01,1,0.99,0.993,1.06,0.987,1.08,–,0.78,0.412,0.421,0.445,–,0.361,0.984,1.02,1.01,–,0.735
HOP-62,1.08,0.9,1,0.943,1.34,0.942,0.963,0.921,0.995,0.951,0.338,0.326,0.406,0.515,0.225,0.966,–,0.948,1.07,0.58
LC-2-ad,0.526,0.334,0.444,0.454,0.685,0.527,0.283,0.311,0.162,0.115,0.529,0.459,0.507,0.356,0.335,0.771,0.727,0.724,0.35,0.202
LCLC-97TM1,0.599,0.4,0.36,0.359,0.451,0.512,0.356,0.461,0.191,0.135,0.223,0.141,0.156,0.109,0.0904,0.274,0.194,0.2,0.144,0.125
LK-2,0.983,0.881,0.81,1.05,1.17,0.777,0.791,0.832,0.633,0.57,0.164,0.166,0.153,0.178,0.152,1.07,1.08,1.18,0.655,0.778

Cell Line,relative viability ([1]; first compound 0.2 µM),relative viability ([1]; first compound 0.6325 µM),relative viability ([1]; first compound 2 µM),relative viability ([1]; first compound 6.325 µM),relative viability ([1]; first compound 20 µM),relative viability ([2]; first compound 0.01 µM),relative viability ([2]; first compound 0.03162 µM),relative viability ([2]; first compound 0.1 µM),relative viability ([2]; first compound 0.3162 µM),relative viability ([2]; first compound 1 µM),relative viability ([3]; first compound 0.01 µM),relative viability ([3]; first compound 0.03162 µM),relative viability ([3]; first compound 0.1 µM),relative viability ([3]; first compound 0.3162 µM),relative viability ([3]; first compound 1 µM),relative viability ([4]; first compound 0.01 µM),relative viability ([4]; first compound 0.03162 µM),relative viability ([4]; first compound 0.1 µM),relative viability ([4]; first compound 0.3162 µM),relative viability ([4]; first compound 1 µM)
LOU-NH91,0.705,0.67,0.744,0.67,0.868,0.731,0.594,0.757,0.389,0.387,0.705,0.618,0.78,0.457,0.467,0.747,0.667,0.739,0.557,0.495
LU99A,0.866,0.86,0.819,0.781,0.889,0.703,0.688,0.613,0.514,0.325,0.318,0.285,0.28,0.291,0.195,0.474,0.384,0.347,0.252,0.21
LXF-289,0.992,0.911,1.01,0.957,1.04,0.919,0.905,0.935,0.818,0.807,0.217,0.172,0.174,0.205,0.108,1.06,0.965,1,0.79,0.75
NCI-H23,1.14,0.709,0.858,0.991,1.1,0.886,0.825,0.775,0.553,0.317,0.368,0.373,0.334,0.254,0.172,0.738,0.601,0.643,0.416,0.222
NCI-H322M,1.29,1.12,1.17,1.25,1.29,1.18,1.14,1.15,0.381,0.274,0.479,0.462,0.306,0.327,0.223,0.811,0.784,0.544,0.28,0.265
NCI-H441,0.814,–,0.405,0.216,0.771,0.582,–,0.515,0.5,0.776,0.715,0.69,0.667,0.475,0.36,0.793,–,0.429,0.392,0.311
NCI-H460,1.45,0.968,1.45,1.04,1.09,1.17,1.08,1.21,–,0.852,0.446,0.468,0.628,0.445,0.293,0.543,0.356,0.481,–,0.173
NCI-H520,1.16,0.971,0.863,1.02,1.12,1.04,0.888,1.07,0.848,0.706,0.448,0.414,0.384,0.491,0.338,0.819,0.754,0.889,0.916,0.534
NCI-H596,0.969,1.08,0.985,0.894,1.16,1.02,0.862,1.03,1.06,0.576,1.04,0.959,1.06,0.888,0.728,0.561,0.444,0.495,0.513,0.359
NCI-H647,1.54,1.02,1.15,0.589,0.554,1.2,0.954,0.977,0.895,0.458,0.197,0.207,0.269,0.443,0.158,0.923,0.933,0.594,0.477,0.585
NCI-H727,0.447,0.377,0.442,0.614,0.556,0.531,0.539,0.512,0.363,0.229,0.703,0.642,0.641,0.536,0.411,0.662,0.644,0.594,0.366,0.308
NCI-H838,1.35,1.07,1.24,1.1,1.25,1.23,1.14,1.15,1.1,1.01,0.266,0.283,0.288,0.311,0.223,1.03,0.974,1.01,1.06,0.692
NCI-H1355,1.08,0.867,0.999,1.03,1.09,1.01,0.831,0.919,0.532,0.264,0.575,0.515,0.587,0.47,0.19,0.829,0.791,0.794,0.427,0.229
NCI-H1395,1.13,1.05,1.13,1.16,1.57,1.46,1.16,1.15,1.28,0.867,0.677,0.667,0.666,0.84,0.609,1.07,0.993,1.04,0.835,0.792
NCI-H1437,1.16,0.997,1.19,1.02,1.15,1.1,1.06,1.01,1.18,1.1,0.408,0.437,0.427,0.45,0.365,0.956,1.02,0.973,0.944,0.778
NCI-H1651,1.06,–,0.998,1.1,1.19,0.992,0.884,1.06,0.874,0.871,0.744,0.718,0.731,0.703,0.426,0.95,0.919,1.03,0.734,0.774
